One assay deals with Pseudoperonospora cubensis. In words: Fungicidal activity against Pseudoperonospora cubensis in cucumber plant assessed as cucumber downy mildew disease control at 500 ppm at 22 +/- 2 degC, 98% RH measured after 10 days. It is filed as functional.
As to `CO/N=C(\C#N)C(=O)NC1=NOC(c2ccccc2)C1` (stereo unspecified), the Activity is below 70%.

On to `CO/N=C(\C#N)C(=O)NC1=NOC(C)(C)C1C` (stereo unspecified), for which the Activity is given as 70%.

For `CC1(C)CC(NC(=O)/C(C#N)=N/OCC#N)=NO1`, the Activity is on record as below 70%.

In the case of `CC1(C)CC(NC(=O)/C(C#N)=N/OCc2ccccc2)=NO1`, the Activity was below 70%.

Regarding `CO/N=C(\C#N)C(=O)N(C)C1=NOC(C)(C)C1`, the Activity was below 70%.

Take `CCN(C(=O)/C(C#N)=N/OC)C1=NOC(C)(C)C1`: the Activity is below 70%.

For the compound `CO/N=C(\C#N)C(=O)N(CC(=O)OC)C1=NOC(C)(C)C1`, the Activity is listed as below 70%.

`COCN(C(=O)/C(C#N)=N/OC)C1=NOC(C)(C)C1`: the Activity was below 70%.

Regarding `CO/N=C(\C#N)C(=O)Nc1cc(C)cs1`, the Activity was below 70%.

`CO/N=C(\C#N)C(=O)Nc1nnc(C)s1`: the Activity is given as below 70%.

Consider `CCOC(=O)NNC(=O)NC(=O)/C(C#N)=N/OC`, for which the Activity is on record as below 70%.

As to `CO/N=C(\C#N)C(=O)NC(=O)NNC(=O)c1ccccc1`, the Activity is listed as below 70%.

On to `CO/N=C(\C#N)C(=O)NC(=O)NNS(=O)(=O)c1ccccc1`, for which the Activity was below 70%.

For the compound `CO/N=C(\C#N)C(=O)NC(=O)OC(C)(C)C(=O)OC`, the Activity is reported as 70%.

As for `CO/N=C(\C#N)C(=O)NC(=O)OCC(C)(C)C(=O)OC`, the Activity was below 70%.

For the compound `CO/N=C(\C#N)C(=O)NC(=O)OCC(=O)N(C)c1ccccc1`, the Activity is below 70%.

As for `CO/N=C(\C#N)C(=O)NC(=O)ON=C(C)C`, the Activity is listed as 70%.

Take `CO/N=C(\C#N)C(=O)NC1=NOC(C2CCCCC2)C1` (stereo unspecified): the Activity is reported as below 70%.

Regarding `CO/N=C(\C#N)C(=O)NC1=NOC(Cc2ccccc2)C1` (stereo unspecified), the Activity is reported as below 70%.

Regarding `C=CC1CC(NC(=O)/C(C#N)=N/OC)=NO1` (stereo unspecified), the Activity is listed as below 70%.

Consider `CCC1ON=C(NC(=O)/C(C#N)=N/OC)C1CC` (stereo unspecified), for which the Activity is 70%.

The subject of a further assay is Pseudoperonospora cubensis. In words: Fungicidal activity against Pseudoperonospora cubensis in cucumber plant assessed as cucumber downy mildew disease control at 125 ppm at 22 +/- 2 degC, 98% RH measured after 10 days. Type of assay: functional.
Consider `CO/N=C(\C#N)C(=O)NC1=NOC(CCl)(CCl)C1`, for which the Activity was 70%.

Turning to `C=CCO/N=C(\C#N)C(=O)NC1=NOC(C)(C)C1`, the Activity is reported as 70%.

As for `COCO/N=C(\C#N)C(=O)NC1=NOC(C)(C)C1`, the Activity is 70%.

Consider `CO/N=C(\C#N)C(=O)Nc1cc(C)on1`, for which the Activity is recorded as 70%.

On to `CO/N=C(\C#N)C(=O)NC(=O)OC(C)C`, for which the Activity was 70%.

Regarding `CO/N=C(\C#N)C(=O)NC1=NOCC1`, the Activity stood at 70%.

For `CO/N=C(\C#N)C(=O)NC1=NOCC1C` (stereo unspecified), the Activity came out at 70%.

As to `CCC1CC(NC(=O)/C(C#N)=N/OC)=NO1` (stereo unspecified), the Activity was determined as 70%.

For the compound `CO/N=C(\C#N)C(=O)NC1=NOC(C(C)C)C1` (stereo unspecified), the Activity was 70%.

For `CCCCC1CC(NC(=O)/C(C#N)=N/OC)=NO1` (stereo unspecified), the Activity is given as 70%.

Turning to `CO/N=C(\C#N)C(=O)NC1=NOC(CO)C1` (stereo unspecified), the Activity was 70%.

Turning to `CO/N=C(\C#N)C(=O)NC1=NOC(C)C1C` (stereo unspecified), the Activity is recorded as 70%.

As to `CCC1(CC)CC(NC(=O)/C(C#N)=N/OC)=NO1`, the Activity is 70%.

On to `CCC1(C)CC(NC(=O)/C(C#N)=N/OC)=NO1` (stereo unspecified), for which the Activity is on record as 70%.

On to `CCCC1(C)CC(NC(=O)/C(C#N)=N/OC)=NO1` (stereo unspecified), for which the Activity is on record as 70%.

Consider `CO/N=C(\C#N)C(=O)NC1=NOC(C(C)(C)C)C1` (stereo unspecified), for which the Activity stood at 70%.

On to `CO/N=C(\C#N)C(=O)NC(=O)OC(C)(C)C`, for which the Activity was found to be 70%.

In another assay the test system is Pseudoperonospora cubensis. In words: Fungicidal activity against Pseudoperonospora cubensis in cucumber plant assessed as cucumber downy mildew disease control at 31.3 ppm at 22 +/- 2 degC, 98% RH measured after 10 days. It is filed as functional.
On to `CO/N=C(\C#N)C(=O)NC1=NOC(C)C1` (stereo unspecified), for which the Activity stood at 70%.

As for `CCO/N=C(\C#N)C(=O)NC1=NOC(C)(C)C1`, the Activity was determined as 70%.

Regarding `CC(C)O/N=C(\C#N)C(=O)NC1=NOC(C)(C)C1`, the Activity came to 70%.

Consider `C=CC1CC(NC(=O)/C(C#N)=N/OC)=NO1` (stereo unspecified), for which the Activity is reported as 70%.

Turning to `CO/N=C(\C#N)C(=O)NC1=NOC(CCl)C1` (stereo unspecified), the Activity came out at 70%.

`CO/N=C(\C#N)C(=O)NC1=NOC(C)(CO)C1` (stereo unspecified): the Activity is listed as 70%.

As for `CO/N=C(\C#N)C(=O)NC1=NOC(C)(CCl)C1` (stereo unspecified), the Activity came out at 70%.

Another assay has as its system Pseudoperonospora cubensis. In words: Fungicidal activity against Pseudoperonospora cubensis in cucumber plant assessed as cucumber downy mildew disease control at 7.8 ppm at 22 +/- 2 degC, 98% RH measured after 10 days. Type of assay: functional.
With `CO/N=C(\C#N)C(=O)NC1=NOC(C)(C)C1`, the Activity came out at 70%.
